Laboratory results reported in patent US10093627B2, “Tetrahydroquinoline derivatives and their use as Epac inhibitors” (Institut National de la Sante et de la Recherche Medicale …, priority 2012, dated 2018).
pEC50, pIC50: −log10 of the molar value.

Columns and labels:
Epac1 [1] = biological target: T1, Epac1 (Homo sapiens, UniProt O95398); assay: In vitro GEF activity (initial velocity of GDP exchange on Rap1A) of Epac1; assay type: biochemical; settings: for Antagonism of cAMP-activated Epac1 GEF activity: compound 30 μM, 300 μM cAMP, FIG. 6C; for pEC50: Epac1 GEF activity toward Rap1, Epac1 activated by 20 μM 007, mean of n=4 to 9 independent determinations; for Dose-response curve of inhibition of 007-activated Epac1 GEF activity, comparison between compounds: Epac1 activated by 20 μM 007, FIG. 5
T1 construct: Recombinant human Epac1 (residues 149-881), deleted of its Dishevelled, Egl-10, and Pleckstrin (DEP) domain; made in house
T1 sequence (O95398 149-881 isoform O95398-3): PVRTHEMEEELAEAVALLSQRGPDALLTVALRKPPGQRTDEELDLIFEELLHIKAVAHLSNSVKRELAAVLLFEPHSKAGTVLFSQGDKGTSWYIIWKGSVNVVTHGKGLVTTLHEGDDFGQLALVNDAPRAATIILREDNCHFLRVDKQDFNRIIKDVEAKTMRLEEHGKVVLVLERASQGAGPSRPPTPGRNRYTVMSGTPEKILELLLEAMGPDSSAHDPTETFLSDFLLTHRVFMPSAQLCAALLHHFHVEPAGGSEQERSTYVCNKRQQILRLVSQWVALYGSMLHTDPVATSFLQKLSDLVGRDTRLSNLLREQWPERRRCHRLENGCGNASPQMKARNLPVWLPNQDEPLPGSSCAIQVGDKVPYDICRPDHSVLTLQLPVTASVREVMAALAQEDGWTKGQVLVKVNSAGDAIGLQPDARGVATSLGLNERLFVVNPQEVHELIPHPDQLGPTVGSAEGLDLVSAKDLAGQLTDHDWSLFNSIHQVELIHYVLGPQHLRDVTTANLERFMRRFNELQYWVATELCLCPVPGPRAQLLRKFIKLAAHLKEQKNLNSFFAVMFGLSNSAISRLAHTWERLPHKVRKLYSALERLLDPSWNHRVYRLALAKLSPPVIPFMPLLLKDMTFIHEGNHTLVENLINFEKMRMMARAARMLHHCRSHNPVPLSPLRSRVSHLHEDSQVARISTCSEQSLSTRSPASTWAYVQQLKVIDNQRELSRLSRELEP
Procedure: Protein NCBI Reference Sequences for human Epac1 and Epac2 are NP_006096 and NP_008954, respectively. Recombinant human Epac1 (residues 149-881), deleted of its Dishevelled, Egl-10, and Pleckstrin (DEP) domain, and human Rap1A were produced with GST as a fusion tag (D. Courilleau et al., Identification of a tetrahydroquinoline analog as a pharmacological inhibitor of the cAMP-binding protein Epac, J. Biol. Chem. 287 (2012) 44192-44202).
(§1) In vitro GDP exchange catalyzed by Epac was measured using purified recombinant Epac isoforms and Rap1A loaded with Bodipy-GDP, as described in D. Courilleau, et al (above mentioned). The GEF activity of Epac proteins was initiated by injection of the agonist. Stock solutions of CE3F4 and its analogs (12 mM in 100% DMSO) were kept at −20° C. and were diluted in assay buffer (0.67% final DMSO concentration) just before use for GDP exchange assays. The release of Bodipy-GDP was measured in real time as the decay of fluorescence. A single exponential was fit to the time-course data using the Graphpad Prism program. The initial velocity (Vi) of GDP exchange on Rap1 was calculated as described in D. Courilleau et al.).
(§2) Data are expressed as mean±S.D. Differences in quantitative variables were examined by unpaired one- or two-tailed Student's t test. EC50 and IC50 values were computed according to a four-parameters dose-response model and compared on the basis of the extra sum-of square F test, using Graphpad Prism. Two-tailed Wilcoxon matched-pair signed rank tests were performed using GraphPad Prism.

[2] = system: Epac1-induced Rap1 activation in HEK293 cells; assay: Epac1-induced Rap1 activation, Rap1-GTP pull-down in HEK293 cells; assay type: cell-based; settings: HEK293 cells overexpressing Epac1 vs empty vector; FIG. 2A
Procedure: HEK293 cells were transfected with either pcDNA3 control vector or Epac1 (see FIG. 2A).
HEK293 cells were transfected with Epac1 and 24 h after transfection, cells were preincubated or not with CE3F4 for 30 min and were then treated or not with Sp-007 (10 μM) for 10 min (see FIG. 2B).
HEK293 cells overexpressing β1AR (Beta-1 adrenergic receptors) and transfected with Epac1 were pretreated or not with CE3F4 and stimulated or not with Iso (10 μM) for 10 min (see FIG. 2C).
Amounts of Rap1-GTP were determined by pull-down assays (see Material and Methods). The bar graph represents the mean±S.E.M. of 5 (FIG. 2A, 2B) or 3 (FIG. 2C) independent experiments. Results are expressed as the percentage of unstimulated control cells.
Ras and Rap1 pull-down experiments were performed using a GST fusion protein containing respectively the Ras binding domain of Raf1-RBD and the Rap1 binding domain of Ral-GDS as previously described (Métrich et al., 2008). Cells were starved for 1 h before stimulation in MEM free with penicillin-streptomycin (1%). After stimulation, cells were lysed in RIPA buffer (50 mM Tris-HCl, pH 7.5; 500 mM NaCl; 20 mM MgCl2; 0.5% deoxycholic acid; 0.1% SDS; 1% Triton X-100; 1 mM PMSF; protease and phosphatase inhibitors) and 500 μg of protein were incubated with either GST-Raf1-RBD (for Ras) or Ral-GDS (for Rap1) coupled to glutathione-Sepharose beads (Amersham Biosciences) for 1h at 4° C. Beads were then washed three times in washing buffer (50 mM Tris-HCl, pH 7.5; 150 mM NaCl, 20 mM MgCl2, 1% Triton X-100; 0.1 mM PMSF; protease and phosphatase inhibitors). Rap1-GTP or Ras samples and corresponding total lysates were separated on SDS-PAGE gels and transferred onto a polyvinylidene difluoride (PVDF) membrane (Amersham Pharmacia Biotech).

Epac2(B) = biological target: T2, Epac2(B) (Homo sapiens, UniProt Q8WZA2); assay: In vitro GEF activity (initial velocity of GDP exchange on Rap1A) of Epac2(B); assay type: biochemical; settings: for Antagonism of cAMP-activated Epac2(B) GEF activity: compound 30 μM, 300 μM cAMP, FIG. 6C
T2 construct: Human Epac2(B) (amino acids 283-1011) lacks the first 283 amino acids of Epac2; made in house; host or cells: Escherichia coli Rosetta 2(DE3)
T2 sequence (Q8WZA2 283-1011): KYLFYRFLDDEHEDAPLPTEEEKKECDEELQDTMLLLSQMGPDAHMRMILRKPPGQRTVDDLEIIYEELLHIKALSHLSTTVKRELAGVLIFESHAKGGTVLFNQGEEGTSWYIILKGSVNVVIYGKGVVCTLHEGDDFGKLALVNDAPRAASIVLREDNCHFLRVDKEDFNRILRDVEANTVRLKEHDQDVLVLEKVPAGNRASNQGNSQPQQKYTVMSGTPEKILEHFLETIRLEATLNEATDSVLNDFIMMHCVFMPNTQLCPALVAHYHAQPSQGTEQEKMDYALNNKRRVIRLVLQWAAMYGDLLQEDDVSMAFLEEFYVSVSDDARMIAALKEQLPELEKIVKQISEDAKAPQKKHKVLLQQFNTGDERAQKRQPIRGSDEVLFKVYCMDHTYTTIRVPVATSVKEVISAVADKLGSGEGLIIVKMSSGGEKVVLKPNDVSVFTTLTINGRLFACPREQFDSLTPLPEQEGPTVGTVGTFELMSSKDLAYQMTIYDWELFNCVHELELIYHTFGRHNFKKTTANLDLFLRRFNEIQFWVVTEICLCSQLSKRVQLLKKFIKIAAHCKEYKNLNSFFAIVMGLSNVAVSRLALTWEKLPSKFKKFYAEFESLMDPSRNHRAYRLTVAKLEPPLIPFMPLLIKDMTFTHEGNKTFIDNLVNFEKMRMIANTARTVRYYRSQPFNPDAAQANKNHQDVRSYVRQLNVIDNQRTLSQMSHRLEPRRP
From the text: Human Epac2(AB) (amino acids 43-1011) carries both the CNB-A and the CNB-B domains. Human Epac2(B) (amino acids 283-1011) lacks the first 283 amino acids of Epac2. It is therefore deleted of its CNB-A and DEP domains, but retains the CNB-B domain and the full catalytic region. Epac2(AB) was obtained by HindIII/NotI restriction and Epac2(B) was obtained by Ssp1/Not1 restriction of a human Epac2A cDNA (a gift from Ann M Graybiel, Department of Brain and Cognitive Sciences, MIT, Cambridge). Both cDNA fragments were inserted into pET41a (Novagen), expressed in Escherichia coli Rosetta 2(DE3) (Novagen), and the GST-tagged fusion proteins were purified by nickel-nitrilotriacetic acid beads (Qiagen), as described in D. Courilleau, et al., Identification of a tetrahydroquinoline analog as a pharmacological inhibitor of the cAMP-binding protein Epac, J. Biol. Chem. 287 (2012) 44192-44202).
as §1, §2

Epac1 [3] = biological target: T1, Epac1; assay: Epac1 nucleotide exchange activity, multipoint (time-course) method, bGDP-loaded GST-Rap1A; assay type: biochemical; settings: 25 μM compound 009; 2 μM compound 007; FIG. 1
Procedure: Epac1 nucleotide exchange activity was measured: • in the absence of compound 007, • or in the presence of 2 μM of compound 007, either alone or with 25 μM of compound 009, • or with 20 μM of CE3F4.
Variations of RFU (Relative Fluorescence Units) were studied as a function of time and fitted to single exponentials. Reported values are mean±SEM (n=3). (see Materiel and Methods).
Concerning FIG. 1, a “multipoint” (time-course) method was used. All components except the agonist (007) were mixed in a well and the exchange activity of Epac1 was initiated by injection of the agonist. GST-Rapt was preloaded with a fluorescent derivative of GDP, and the Epac1-catalyzed nucleotide exchange was measured using a large excess of non-fluorescent GDP, by taking advantage of the spectroscopic difference between free and Rap1-bound fluorescently labeled GDP. The principle of the method is similar to that reported in particular by Van den Berghe et al. (1997; Oncogene 15, 845), except that Bodipy FL-labeled GDP (bGDP) was used here, rather than 2′,3′-bis(O)—N-methylanthraniloyl-GDP (mant-GDP). […]

Row | SMILES | Antagonism of cAMP-activated Epac1 GEF activity (Epac1 [1]) | Antagonism of cAMP-activated Epac2(B) GEF activity (Epac2(B)) | also measured
1 | CC(=O)N1c2cc(Br)c(F)c(Br)c2CCC1C (stereo not shown) [g)] | antagonistic properties |  | 
2 | CO[C@H]1C2OP(O)(=S)OC[C@H]2O[C@H]1n1c(Sc2ccc(Cl)cc2)nc2c(N)ncnc21 (stereo partly shown) [Sp-007, Sp-8-pCPT-2′-O-Me-cAMPS, reference compound] |  |  | Rap1 activation (Rap1-GTP/Total Rap1) by agonist [2]: robust activation of Rap1
3 | O=CN1CCCc2c1cc(Br)c(F)c2Br [Compound f)] | antagonistic properties | antagonistic properties | pEC50 (Epac1 [1]): 4.30; Dose-response curve of inhibition of 007-activated Epac1 GEF activity, comparison between compounds (Epac1 [1]): not significantly different
4 | Nc1nc2c(nc(Sc3ccc(Cl)cc3)n2[C@@H]2O[C@@H]3COP(=O)(O)O[C@H]3[C@H]2O)c(=O)[nH]1 [Compound 009, 8-(4-chlorophenylthio)-guanosine-3′,5′-cyclic monophosphate, reference compound] |  |  | Inhibition of the exchange reaction induced by Epac1 plus 007 (Epac1 [3]): inhibitory effect
5 | C[C@@H]1CCc2c(cc(Br)c(F)c2Br)N1C=O [(R)-CE3F4] |  |  | pIC50 (Epac2(B); Epac2(B) activated by 300 μM cAMP): 4.36; IC50 smaller than that of racemic CE3F4 (Epac1 GEF activity) (Epac1 [1]; 007-activated Epac1): about 2 fold; IC50 smaller than the IC50 values of (S)-CE3F4 and compound f) (Epac1 GEF activity) (Epac1 [1]; 007-activated Epac1): about 10 fold; pEC50 (Epac1 [1]): 5.24; Dose-response curve of inhibition of 007-activated Epac1 GEF activity, comparison between compounds (Epac1 [1]): more potent Epac inhibitor; pIC50 (Epac1 [1]; Epac1 activated by 300 μM cAMP): 5.38
6 | CC1CCc2c(cc(Br)c(F)c2Br)N1 (stereo not shown) [h)] | antagonistic properties |  | 
7 | CC1CCc2cc(F)c(Br)cc2N1C=O (stereo not shown) [b), reference compound] | no significant inhibitory activity | no significant inhibitory activity | 
8 | CC1CCc2c(ccc(F)c2Br)N1C=O (stereo not shown) [a)] | antagonistic properties | antagonistic properties | 
9 | CC1CCc2c(ccc(F)c2C=O)N1C=O (stereo not shown) [d), reference compound] | no significant inhibitory activity | no significant inhibitory activity | 
10 | CC1CCc2c(Br)cc(Br)cc2N1C=O (stereo not shown) [e)] | antagonistic properties | antagonistic properties | 
